Read-outs that look alike come from different tables or passages of the source.
Legend:
[1] = tested on: five cell lines with CCNE1 amplification (ovarian cancer); assay: CellTiter Glo viability assay; format: cell-based; conditions: 144 h
CDK1/cyclin B1 = target: T1, CDK1/cyclin B1 (Homo sapiens, UniProt P06493); assay: Nanosyn biochemical assay
T1 construct: purchased Millipore 14-450M
Procedure: (§1) Compounds were tested in kinase assays (Nanosyn, Inc.). The assays were completed using microfluidic kinase detection technology (Caliper Assay Platform). The compounds were tested in 12-point dose–response format in singlicate at the Km for ATP. Phosphoacceptor substrate peptide concentration used was 1 µmol/L and staurosporine was used as the reference compound for all assays. Details for individual Nanosyn assays performed are provided here: […]

CDK5/p25 = target: T2, CDK5/p25 (Homo sapiens, UniProt Q00535); assay: Nanosyn biochemical assay; conditions: ATP at Km, value (SEM), read-out: IC50 (nmol/L) CDK5/p25
T2 construct: purchased BPS 40105
Procedure: as §1

CDK6/cyclin D3 = target: T3, CDK6/cyclin D3 (Homo sapiens, UniProt Q00534); assay: Nanosyn biochemical assay; conditions: Supp Fig S1D, representative dose response curve, read-out: IC50 CDK6 - Cyclin D3
T3 construct: purchased Carna 04-107
Procedure: as §1

PI4K2B (PI4K2 beta) = target: T4, PI4K2B (PI4K2 beta) (Homo sapiens, UniProt Q8TCG2); assay: SelectScreen Adapta; format: biochemical; conditions: INX-0315 at 100nM
T4 construct: purchased Thermo Fisher Scientific SelectScreen (plus Nanosyn / Reaction Biology for CDK/cyclin lines)
From the text: (§2) INX-315 was first evaluated in the SelectScreen Biochemical Kinase Profiling at Thermo Fisher Scientific (Madison, WI). The primary screen consisted of INX-315 dosed at a single concentration of 100 nmol/L in 1% DMSO across each platform within the SelectScreen array of assays, LanthaScreen Eu Kinase Binding Assay; AdaptaScreen; and Z'LyteScreen using preestablished conditions at Thermo Fisher Scientific as shown in Supplementary Table S2. […] The follow-up screen consisted of 10-point dose–response curves for INX-315 from 1 µmol/L to 0.0495 nmol/L.

DAPK1 = target: T5, DAPK1 (Homo sapiens, UniProt P53355); assay: SelectScreen Adapta; format: biochemical; conditions: INX-0315 at 100nM
T5 construct: purchased Thermo Fisher Scientific SelectScreen (plus Nanosyn / Reaction Biology for CDK/cyclin lines)
From the text: as §2

LRRK2 = target: T6, LRRK2 (Homo sapiens, UniProt Q5S007); assay: SelectScreen Adapta; format: biochemical; conditions: INX-0315 at 100nM
T6 construct: purchased Thermo Fisher Scientific SelectScreen (plus Nanosyn / Reaction Biology for CDK/cyclin lines)
From the text: as §2

SPHK2 = target: T7, SPHK2 (Homo sapiens, UniProt Q9NRA0); assay: SelectScreen Adapta; format: biochemical; conditions: INX-0315 at 100nM
T7 construct: purchased Thermo Fisher Scientific SelectScreen (plus Nanosyn / Reaction Biology for CDK/cyclin lines)
From the text: as §2

PIK3C2B (PI3K-C2 beta) = target: T8, PIK3C2B (PI3K-C2 beta) (Homo sapiens, UniProt O00750); assay: SelectScreen Adapta; format: biochemical; conditions: INX-0315 at 100nM
T8 construct: purchased Thermo Fisher Scientific SelectScreen (plus Nanosyn / Reaction Biology for CDK/cyclin lines)
From the text: as §2

PIK3C2A (PI3K-C2 alpha) = target: T9, PIK3C2A (PI3K-C2 alpha) (Homo sapiens, UniProt O00443); assay: SelectScreen Adapta; format: biochemical; conditions: INX-0315 at 100nM
T9 construct: purchased Thermo Fisher Scientific SelectScreen (plus Nanosyn / Reaction Biology for CDK/cyclin lines)
From the text: as §2

[2] = target: T10, PIK3CB/PIK3R2 (p110 beta/p85 beta) (Homo sapiens, UniProt P42338); assay: SelectScreen Adapta; format: biochemical; conditions: INX-0315 at 100nM
T10 construct: purchased Thermo Fisher Scientific SelectScreen (plus Nanosyn / Reaction Biology for CDK/cyclin lines)
From the text: as §2

CDK7/cyclin H/MNAT1 = target: T11, CDK7/cyclin H/MNAT1 (Homo sapiens, UniProt P50613); assay: SelectScreen Adapta; format: biochemical; conditions: INX-0315 at 100nM
T11 construct: purchased Thermo Fisher Scientific SelectScreen (plus Nanosyn / Reaction Biology for CDK/cyclin lines)
From the text: as §2

PIP5K1A = target: T12, PIP5K1A (Homo sapiens, UniProt Q99755); assay: SelectScreen Adapta; format: biochemical; conditions: INX-0315 at 100nM
T12 construct: purchased Thermo Fisher Scientific SelectScreen (plus Nanosyn / Reaction Biology for CDK/cyclin lines)
From the text: as §2

CAMK1 (CaMK1) = target: T13, CAMK1 (CaMK1) (Homo sapiens, UniProt Q14012); assay: SelectScreen Adapta; format: biochemical; conditions: INX-0315 at 100nM
T13 construct: purchased Thermo Fisher Scientific SelectScreen (plus Nanosyn / Reaction Biology for CDK/cyclin lines)
From the text: as §2

PIK3C3 (hVPS34) = target: T14, PIK3C3 (hVPS34) (Homo sapiens, UniProt Q8NEB9); assay: SelectScreen Adapta; format: biochemical; conditions: INX-0315 at 100nM
T14 construct: purchased Thermo Fisher Scientific SelectScreen (plus Nanosyn / Reaction Biology for CDK/cyclin lines)
From the text: as §2

PI4KA (PI4K alpha) = target: T15, PI4KA (PI4K alpha) (Homo sapiens, UniProt P42356); assay: SelectScreen Adapta; format: biochemical; conditions: INX-0315 at 100nM
T15 construct: purchased Thermo Fisher Scientific SelectScreen (plus Nanosyn / Reaction Biology for CDK/cyclin lines)
From the text: as §2

IRAK1 = target: T16, IRAK1 (Homo sapiens, UniProt P51617); assay: SelectScreen Adapta; format: biochemical; conditions: INX-0315 at 100nM
T16 construct: purchased Thermo Fisher Scientific SelectScreen (plus Nanosyn / Reaction Biology for CDK/cyclin lines)
From the text: as §2

LRRK2 G2019S FL = target: T17, LRRK2 G2019S FL (Homo sapiens, UniProt Q5S007, G2019S); assay: SelectScreen Adapta; format: biochemical; conditions: INX-0315 at 100nM
T17 construct: purchased Thermo Fisher Scientific SelectScreen (plus Nanosyn / Reaction Biology for CDK/cyclin lines)
From the text: as §2

[3] = target: T18, PIK3CA E542K/PIK3R1 (p110 alpha E542K/p85 alpha) (Homo sapiens, UniProt P42336, E542K); assay: SelectScreen Adapta; format: biochemical; conditions: INX-0315 at 100nM
T18 construct: purchased Thermo Fisher Scientific SelectScreen (plus Nanosyn / Reaction Biology for CDK/cyclin lines)
From the text: as §2

[4] = target: T19, PIK3CD/PIK3R1 (p110 delta/p85 alpha) (Homo sapiens, UniProt O00329); assay: SelectScreen Adapta; format: biochemical; conditions: INX-0315 at 100nM
T19 construct: purchased Thermo Fisher Scientific SelectScreen (plus Nanosyn / Reaction Biology for CDK/cyclin lines)
From the text: as §2

CHUK (IKK alpha) = target: T20, CHUK (IKK alpha) (Homo sapiens, UniProt O15111); assay: SelectScreen Adapta; format: biochemical; conditions: INX-0315 at 100nM
T20 construct: purchased Thermo Fisher Scientific SelectScreen (plus Nanosyn / Reaction Biology for CDK/cyclin lines)
From the text: as §2

LRRK2 R1441C = target: T21, LRRK2 R1441C (Homo sapiens, UniProt Q5S007, R1441C); assay: SelectScreen Adapta; format: biochemical; conditions: INX-0315 at 100nM
T21 construct: purchased Thermo Fisher Scientific SelectScreen (plus Nanosyn / Reaction Biology for CDK/cyclin lines)
From the text: as §2

[5] = target: T22, PIK3CA/PIK3R1 (p110 alpha/p85 alpha) (Homo sapiens, UniProt P42336); assay: SelectScreen Adapta; format: biochemical; conditions: INX-0315 at 100nM
T22 construct: purchased Thermo Fisher Scientific SelectScreen (plus Nanosyn / Reaction Biology for CDK/cyclin lines)
From the text: as §2

LRRK2 FL = target: T23, LRRK2 FL (Homo sapiens, UniProt Q5S007); assay: SelectScreen Adapta; format: biochemical; conditions: INX-0315 at 100nM
T23 construct: purchased Thermo Fisher Scientific SelectScreen (plus Nanosyn / Reaction Biology for CDK/cyclin lines)
From the text: as §2

PIK3C2G (PI3K-C2 gamma) = target: T24, PIK3C2G (PI3K-C2 gamma) (Homo sapiens, UniProt O75747); assay: SelectScreen Adapta; format: biochemical; conditions: INX-0315 at 100nM
T24 construct: purchased Thermo Fisher Scientific SelectScreen (plus Nanosyn / Reaction Biology for CDK/cyclin lines)
From the text: as §2

CDK6/cyclin D1 = target: T25, CDK6/cyclin D1 (Homo sapiens, UniProt Q00534); assay: SelectScreen Adapta; format: biochemical; conditions: INX-0315 at 100nM
T25 construct: purchased Thermo Fisher Scientific SelectScreen (plus Nanosyn / Reaction Biology for CDK/cyclin lines)
From the text: as §2

PI4KB (PI4K beta) = target: T26, PI4KB (PI4K beta) (Homo sapiens, UniProt Q9UBF8); assay: SelectScreen Adapta; format: biochemical; conditions: INX-0315 at 100nM
T26 construct: purchased Thermo Fisher Scientific SelectScreen (plus Nanosyn / Reaction Biology for CDK/cyclin lines)
From the text: as §2

SPHK1 = target: T27, SPHK1 (Homo sapiens, UniProt Q9NYA1); assay: SelectScreen Adapta; format: biochemical; conditions: INX-0315 at 100nM
T27 construct: purchased Thermo Fisher Scientific SelectScreen (plus Nanosyn / Reaction Biology for CDK/cyclin lines)
From the text: as §2

PIK3CG (p110 gamma) = target: T28, PIK3CG (p110 gamma) (Homo sapiens, UniProt P48736); assay: SelectScreen Adapta; format: biochemical; conditions: INX-0315 at 100nM
T28 construct: purchased Thermo Fisher Scientific SelectScreen (plus Nanosyn / Reaction Biology for CDK/cyclin lines)
From the text: as §2

GSG2 (Haspin) = target: T29, GSG2 (Haspin) (Homo sapiens, UniProt Q8TF76); assay: SelectScreen Adapta; format: biochemical; conditions: INX-0315 at 100nM
T29 construct: purchased Thermo Fisher Scientific SelectScreen (plus Nanosyn / Reaction Biology for CDK/cyclin lines)
From the text: as §2

CDK9/cyclin T1 = target: T30, CDK9/cyclin T1 (Homo sapiens, UniProt P50750); assay: SelectScreen Adapta; format: biochemical; conditions: INX-0315 at 100nM
T30 construct: purchased Carna 04-110
From the text: as §2

T1 sequence (P06493 whole entry): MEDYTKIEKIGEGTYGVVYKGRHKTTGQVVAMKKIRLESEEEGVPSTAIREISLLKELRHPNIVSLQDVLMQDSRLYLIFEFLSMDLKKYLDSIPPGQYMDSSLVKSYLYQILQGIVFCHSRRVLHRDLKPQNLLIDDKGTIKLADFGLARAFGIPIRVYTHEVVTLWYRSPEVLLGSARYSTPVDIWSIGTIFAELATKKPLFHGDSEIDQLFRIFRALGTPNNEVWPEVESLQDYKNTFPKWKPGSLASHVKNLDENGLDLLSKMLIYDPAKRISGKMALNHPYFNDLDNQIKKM
T1 sequence (P14635 whole entry partner): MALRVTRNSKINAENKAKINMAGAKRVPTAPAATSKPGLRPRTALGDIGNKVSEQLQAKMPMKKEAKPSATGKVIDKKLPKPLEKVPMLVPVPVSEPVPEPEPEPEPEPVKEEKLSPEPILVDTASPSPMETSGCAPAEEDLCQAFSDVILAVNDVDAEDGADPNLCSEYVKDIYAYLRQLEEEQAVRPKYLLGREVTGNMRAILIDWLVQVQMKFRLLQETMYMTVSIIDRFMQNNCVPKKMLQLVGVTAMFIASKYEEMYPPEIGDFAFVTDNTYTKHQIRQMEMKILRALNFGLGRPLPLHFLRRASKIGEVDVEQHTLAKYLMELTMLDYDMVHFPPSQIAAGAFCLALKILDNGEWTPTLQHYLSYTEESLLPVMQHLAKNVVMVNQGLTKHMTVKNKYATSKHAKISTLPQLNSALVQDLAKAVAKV
T19 sequence (O00329 whole entry): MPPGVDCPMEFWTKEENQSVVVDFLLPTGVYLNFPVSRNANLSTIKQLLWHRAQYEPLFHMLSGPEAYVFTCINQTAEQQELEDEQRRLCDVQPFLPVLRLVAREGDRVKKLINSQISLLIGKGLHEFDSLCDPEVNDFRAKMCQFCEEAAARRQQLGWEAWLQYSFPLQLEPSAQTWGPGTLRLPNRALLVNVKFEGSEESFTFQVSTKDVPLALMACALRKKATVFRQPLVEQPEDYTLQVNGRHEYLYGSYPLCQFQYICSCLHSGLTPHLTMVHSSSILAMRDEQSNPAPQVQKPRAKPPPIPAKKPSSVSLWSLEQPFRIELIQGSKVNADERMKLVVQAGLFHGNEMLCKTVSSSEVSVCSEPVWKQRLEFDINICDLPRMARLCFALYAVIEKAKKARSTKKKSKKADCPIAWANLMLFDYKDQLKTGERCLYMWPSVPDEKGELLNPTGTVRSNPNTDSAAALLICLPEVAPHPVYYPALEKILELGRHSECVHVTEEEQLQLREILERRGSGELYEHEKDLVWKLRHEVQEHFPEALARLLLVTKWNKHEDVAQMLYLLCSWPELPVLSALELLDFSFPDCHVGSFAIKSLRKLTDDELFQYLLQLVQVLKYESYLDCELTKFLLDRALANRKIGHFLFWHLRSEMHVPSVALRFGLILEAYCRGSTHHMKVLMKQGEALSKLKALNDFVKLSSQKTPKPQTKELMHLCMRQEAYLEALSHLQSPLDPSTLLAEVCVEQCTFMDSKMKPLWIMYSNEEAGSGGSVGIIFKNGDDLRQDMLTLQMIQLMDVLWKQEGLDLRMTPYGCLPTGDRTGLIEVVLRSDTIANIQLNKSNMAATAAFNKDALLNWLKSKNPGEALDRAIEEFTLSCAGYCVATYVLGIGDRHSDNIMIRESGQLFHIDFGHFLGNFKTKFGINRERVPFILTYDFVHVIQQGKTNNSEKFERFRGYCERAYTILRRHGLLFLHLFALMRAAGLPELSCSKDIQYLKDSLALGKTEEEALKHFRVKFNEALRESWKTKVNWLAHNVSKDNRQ
T19 sequence (P27986 whole entry partner): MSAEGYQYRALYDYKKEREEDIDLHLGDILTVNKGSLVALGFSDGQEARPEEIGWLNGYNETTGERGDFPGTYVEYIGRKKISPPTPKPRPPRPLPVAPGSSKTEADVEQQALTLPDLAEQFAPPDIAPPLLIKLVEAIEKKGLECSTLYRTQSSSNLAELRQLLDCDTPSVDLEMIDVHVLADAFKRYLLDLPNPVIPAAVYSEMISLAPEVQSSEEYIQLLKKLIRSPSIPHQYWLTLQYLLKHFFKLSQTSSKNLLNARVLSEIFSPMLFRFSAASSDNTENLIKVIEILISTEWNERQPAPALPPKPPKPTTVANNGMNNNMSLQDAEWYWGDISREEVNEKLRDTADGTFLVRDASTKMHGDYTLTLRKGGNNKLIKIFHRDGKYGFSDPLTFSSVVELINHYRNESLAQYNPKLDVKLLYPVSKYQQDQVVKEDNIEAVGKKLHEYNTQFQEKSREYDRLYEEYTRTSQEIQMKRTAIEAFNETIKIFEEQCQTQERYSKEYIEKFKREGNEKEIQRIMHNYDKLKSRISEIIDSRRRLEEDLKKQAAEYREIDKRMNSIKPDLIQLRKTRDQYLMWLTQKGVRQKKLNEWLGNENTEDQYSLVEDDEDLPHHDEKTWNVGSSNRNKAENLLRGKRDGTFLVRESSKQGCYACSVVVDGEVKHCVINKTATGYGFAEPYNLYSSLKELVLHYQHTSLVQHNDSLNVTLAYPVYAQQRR
T16 sequence (P51617 whole entry): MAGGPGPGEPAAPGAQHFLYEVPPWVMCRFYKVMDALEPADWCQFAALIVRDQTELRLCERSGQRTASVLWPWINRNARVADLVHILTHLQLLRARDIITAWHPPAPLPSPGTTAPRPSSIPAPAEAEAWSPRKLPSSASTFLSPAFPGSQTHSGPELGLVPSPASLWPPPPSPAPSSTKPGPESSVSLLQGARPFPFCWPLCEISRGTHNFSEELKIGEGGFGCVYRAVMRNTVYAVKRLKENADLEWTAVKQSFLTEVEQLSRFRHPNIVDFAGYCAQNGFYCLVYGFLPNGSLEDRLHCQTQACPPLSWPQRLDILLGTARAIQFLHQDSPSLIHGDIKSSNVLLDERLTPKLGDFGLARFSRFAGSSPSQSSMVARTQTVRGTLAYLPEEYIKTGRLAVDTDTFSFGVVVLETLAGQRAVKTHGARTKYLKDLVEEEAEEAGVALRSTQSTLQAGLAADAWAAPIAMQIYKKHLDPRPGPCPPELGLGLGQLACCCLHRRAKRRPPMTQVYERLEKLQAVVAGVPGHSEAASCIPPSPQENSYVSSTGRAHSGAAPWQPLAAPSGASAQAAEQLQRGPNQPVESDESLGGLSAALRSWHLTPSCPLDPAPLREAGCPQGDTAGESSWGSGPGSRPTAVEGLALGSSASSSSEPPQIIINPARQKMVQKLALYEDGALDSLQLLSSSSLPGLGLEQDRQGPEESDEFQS
T7 sequence (Q9NRA0 whole entry): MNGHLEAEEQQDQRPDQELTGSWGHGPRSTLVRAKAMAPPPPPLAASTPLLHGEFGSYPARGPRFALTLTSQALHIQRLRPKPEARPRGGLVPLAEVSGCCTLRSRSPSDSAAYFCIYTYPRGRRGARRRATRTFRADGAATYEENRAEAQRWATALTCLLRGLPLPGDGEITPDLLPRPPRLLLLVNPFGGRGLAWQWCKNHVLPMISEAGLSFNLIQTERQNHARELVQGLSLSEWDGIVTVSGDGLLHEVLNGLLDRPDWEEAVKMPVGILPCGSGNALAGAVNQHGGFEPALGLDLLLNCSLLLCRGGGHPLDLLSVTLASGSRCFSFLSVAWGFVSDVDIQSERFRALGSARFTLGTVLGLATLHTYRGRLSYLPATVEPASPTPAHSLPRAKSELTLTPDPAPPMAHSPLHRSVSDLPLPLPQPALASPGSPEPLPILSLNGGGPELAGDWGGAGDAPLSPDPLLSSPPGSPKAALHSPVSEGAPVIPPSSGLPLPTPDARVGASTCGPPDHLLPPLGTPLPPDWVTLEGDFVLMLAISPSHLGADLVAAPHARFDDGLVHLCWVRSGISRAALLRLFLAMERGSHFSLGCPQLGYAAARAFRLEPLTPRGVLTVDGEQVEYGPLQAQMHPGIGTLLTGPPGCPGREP
T27 sequence (Q9NYA1 whole entry): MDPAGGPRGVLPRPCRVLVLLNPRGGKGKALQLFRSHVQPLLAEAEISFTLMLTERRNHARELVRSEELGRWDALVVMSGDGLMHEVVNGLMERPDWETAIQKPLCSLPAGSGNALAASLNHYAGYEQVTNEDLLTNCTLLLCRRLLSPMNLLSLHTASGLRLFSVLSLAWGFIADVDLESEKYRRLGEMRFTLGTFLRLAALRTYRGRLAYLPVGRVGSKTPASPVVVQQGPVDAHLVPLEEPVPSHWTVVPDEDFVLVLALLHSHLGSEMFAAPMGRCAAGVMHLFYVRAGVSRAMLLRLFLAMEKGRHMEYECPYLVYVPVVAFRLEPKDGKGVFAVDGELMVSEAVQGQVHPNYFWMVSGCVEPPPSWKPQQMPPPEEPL
T4 sequence (Q8TCG2 whole entry): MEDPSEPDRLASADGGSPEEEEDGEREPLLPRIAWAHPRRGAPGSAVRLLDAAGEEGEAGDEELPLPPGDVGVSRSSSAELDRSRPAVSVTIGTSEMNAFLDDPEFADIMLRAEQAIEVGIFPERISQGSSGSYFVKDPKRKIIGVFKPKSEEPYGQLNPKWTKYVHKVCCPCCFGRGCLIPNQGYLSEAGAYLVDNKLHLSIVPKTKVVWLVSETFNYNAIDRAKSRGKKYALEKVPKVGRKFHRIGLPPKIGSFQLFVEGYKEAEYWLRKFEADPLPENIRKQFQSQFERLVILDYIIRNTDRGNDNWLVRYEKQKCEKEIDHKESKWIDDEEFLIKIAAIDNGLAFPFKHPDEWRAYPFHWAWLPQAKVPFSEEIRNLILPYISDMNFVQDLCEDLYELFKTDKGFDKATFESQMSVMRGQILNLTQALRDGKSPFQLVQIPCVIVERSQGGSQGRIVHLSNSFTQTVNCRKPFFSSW

NS(=O)(=O)c1ccc(Nc2ncc3cc4n(c3n2)C2(CCCCC2)C(=O)NN4)cc1 [INX-315]
IC50 ([1]; read-out: cellular IC50): < 100 nM
IC50 ([1]; read-out: cellular IC50, range): 10 to 64 nM
IC50 (CDK1/cyclin B1; Supp Fig S1C, value (SEM), read-out: IC50 (nM) CDK1/B1): 30 nM
IC50 (CDK1/cyclin B1; Supp Fig S1D, representative dose response curve, read-out: IC50 CDK1 - Cyclin B): 29.1 nM
IC50 (CDK5/p25): 21.4 nmol/L
IC50 (CDK6/cyclin D3): 291 nM
inhibition at 0.1 µM (PI4K2B (PI4K2 beta)): -2%
inhibition at 0.1 µM (DAPK1): -8%
inhibition at 0.1 µM (LRRK2): 29%
inhibition at 0.1 µM (SPHK2): -19%
inhibition at 0.1 µM (PIK3C2B (PI3K-C2 beta)): -14%
inhibition at 0.1 µM (PIK3C2A (PI3K-C2 alpha)): -1%
inhibition at 0.1 µM [2]: -14%
inhibition at 0.1 µM (CDK7/cyclin H/MNAT1): -3%
inhibition at 0.1 µM (PIP5K1A): 6%
inhibition at 0.1 µM (CAMK1 (CaMK1)): -17%
inhibition at 0.1 µM (PIK3C3 (hVPS34)): 7%
inhibition at 0.1 µM (PI4KA (PI4K alpha)): -11%
inhibition at 0.1 µM (IRAK1): 6%
inhibition at 0.1 µM (LRRK2 G2019S FL): 40%
inhibition at 0.1 µM [3]: -1%
inhibition at 0.1 µM [4]: -10%
inhibition at 0.1 µM (CHUK (IKK alpha)): -7%
inhibition at 0.1 µM (LRRK2 R1441C): 22%
inhibition at 0.1 µM [5]: 11%
inhibition at 0.1 µM (LRRK2 FL): 37%
inhibition at 0.1 µM (PIK3C2G (PI3K-C2 gamma)): 6%
inhibition at 0.1 µM (CDK6/cyclin D1): 15%
inhibition at 0.1 µM (PI4KB (PI4K beta)): 2%
inhibition at 0.1 µM (SPHK1): -15%
inhibition at 0.1 µM (PIK3CG (p110 gamma)): -8%
inhibition at 0.1 µM (GSG2 (Haspin)): 4%
inhibition at 0.1 µM (CDK9/cyclin T1): 52%

— paper PMC10905675, “INX-315, a Selective CDK2 Inhibitor, Induces Cell Cycle Arrest and Senescence in Solid Tumors” (Cancer Discovery, 2023)
